This is an account of results in ChEMBL document CHEMBL1129522, “Inhibitors of acyl-CoA:cholesterol O-acyltransferase. 17. Structure-activity relationships of several series of compounds derived from N-chlorosulfonyl isocyanate” (J Med Chem, 1996).

The target in experiment [1] is T1, Sterol O-acyltransferase 1 (Rattus norvegicus) (UniProt O70536).
T1 sequence (whole entry): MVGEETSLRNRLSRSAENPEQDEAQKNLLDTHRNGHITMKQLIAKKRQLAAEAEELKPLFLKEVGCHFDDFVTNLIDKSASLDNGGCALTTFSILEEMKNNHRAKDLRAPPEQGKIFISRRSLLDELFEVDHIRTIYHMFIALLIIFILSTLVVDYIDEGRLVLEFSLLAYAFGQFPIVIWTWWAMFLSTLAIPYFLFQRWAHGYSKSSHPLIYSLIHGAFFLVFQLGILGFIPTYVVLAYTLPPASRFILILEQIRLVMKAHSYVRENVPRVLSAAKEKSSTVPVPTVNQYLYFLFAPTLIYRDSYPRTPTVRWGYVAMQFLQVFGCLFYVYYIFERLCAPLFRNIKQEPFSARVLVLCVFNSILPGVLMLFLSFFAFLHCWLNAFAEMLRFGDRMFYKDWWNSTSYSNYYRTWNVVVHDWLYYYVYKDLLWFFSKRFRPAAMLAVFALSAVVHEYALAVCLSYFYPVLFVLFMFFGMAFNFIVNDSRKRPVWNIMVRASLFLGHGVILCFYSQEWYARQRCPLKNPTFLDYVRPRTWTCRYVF
The experiment can be described thus: Acute in vivo activity was measured by the total plasma cholesterol concentration levels(TC) at dose 50 mg/kg. Format: functional, organism-based. More on the design: dose 50 mg/kg.

The target in experiment [2] is T1, Sterol O-acyltransferase 1 (Rattus norvegicus). The experiment can be described thus: Chronic in vivo activity was measured by the concentration of high density lipoproteins (HDL) in cholesterol fed rats. It is filed as functional, organism-based.
Experiment [3] concerns the target T2, Sterol O-acyltransferase 1 (Rattus norvegicus, UniProt O70536).
T2 sequence (O70536 whole entry): T1 sequence (whole entry)
The experiment can be described thus: In vitro inhibitory activity against acyl coenzyme A:cholesterol acyltransferase 1 in microsomes of rat liver.

Experiment [4] addresses T1, Sterol O-acyltransferase 1 (Rattus norvegicus). The experiment can be described thus: Chronic in vivo activity was measured by the total cholesterol concentration levels in cholesterol fed rats. Format: functional, organism-based.
Experiment [5] has the same target. The experiment is described as follows: Chronic in vivo activity was measured by the total cholesterol concentration levels in Cholesterol-Fed Rats. It is filed as functional, organism-based.

With `CC(C)c1cccc(C(C)C)c1NC(=O)NS(=O)(=O)N(Cc1ccccc1)C(C)C`, the Delta TC in experiment [1] is -60%; in experiment [4], -41%. Besides, the Delta HDL in experiment [2] is 150%. Further, the 50% inhibitory concentration (IC50) in experiment [3] amounted to 0.4 µM.

Consider `Cc1cc(C(C)(C)C)c(OC(=O)NS(=O)(=O)Nc2c(C(C)C)cccc2C(C)C)c(C(C)(C)C)c1`, for which the Delta TC in experiment [1] was -56%; in experiment [4] it was -38%. In experiment [2], this compound displayed a Delta HDL of 156%. This compound also yielded an IC50 in experiment [3] of 13.5 µM.

For the compound `CC(C)c1cccc(C(C)C)c1NC(=O)NS(=O)(=O)Nc1c(C(C)C)cccc1C(C)C`, the values for the Delta TC in experiment [1] and in experiment [4] were -54% and -37%, respectively. In experiment [2], the Delta HDL was 80%. Also, the IC50 in experiment [3] is 11 µM.

For `CC(C)(C)c1cccc(C(C)(C)C)c1OC(=O)NS(=O)(=O)NC(c1ccccc1)c1ccccc1`, the Delta TC is -35% in experiment [1] and -46% in experiment [5]. In experiment [2], the Delta HDL came out at 50%. The IC50 in experiment [3] came out at 11.4 µM.

Take `CC(C)c1cccc(C(C)C)c1OC(=O)NS(=O)(=O)Nc1ccccc1`: the Delta TC in experiment [1] is -55%; in experiment [4], -33%. In addition, in experiment [2], the Delta HDL worked out at 240%. The compound also yielded an IC50 in experiment [3] of 38.1 µM.

With `CC(C)c1cccc(C(C)C)c1NS(=O)(=O)NC(=O)Oc1c(C(C)C)cccc1C(C)C`, the Delta TC in experiment [1] is -65%; in experiment [4], -9%. The Delta HDL in experiment [2] amounted to 388%. Besides, the IC50 in experiment [3] came out at 25.8 µM.

Turning to `Cc1cc(C(C)(C)C)c(OC(=O)NS(=O)(=O)NCC(c2ccccc2)c2ccccc2)c(C(C)(C)C)c1`, the Delta TC in experiment [1] is -54%; in experiment [4], -51%. In experiment [2], the Delta HDL worked out at 144%. The compound also came in with a half-inhibitory concentration (IC50) in experiment [3] of 24.4 µM.

As to `Cc1cc(C(C)(C)C)c(OC(=O)NS(=O)(=O)NC(c2ccccc2)c2ccccc2)c(C(C)(C)C)c1`, the Delta TC is -42% in experiment [1] and -25% in experiment [4]. Also, the Delta HDL in experiment [2] was 100%. This compound also displayed an IC50 in experiment [3] of 11.5 µM.

With `CC(C)c1cccc(C(C)C)c1NC(=O)NS(=O)(=O)N(C(C)C)C(C)C`, the Delta TC in experiment [1] is -59%; in experiment [4] it was -38%. The Delta HDL in experiment [2] is 83%. The compound also registered a half-inhibitory concentration (IC50) in experiment [3] of 0.24 µM.

Turning to `CC(C)c1cccc(C(C)C)c1NS(=O)(=O)NC(=O)Oc1c(C(C)(C)C)cccc1C(C)(C)C`, the Delta TC in experiment [1] is -57%; in experiment [5] it was -28%. This compound also registered a Delta HDL in experiment [2] of 200%. Moreover, the midpoint of inhibition in experiment [3], the IC50, lay at 16.8 µM.
